# According to publication PMC11237774, “On-target, dual aminopeptidase inhibition provides cross-species antimalarial activity” (mBio, 2024):
# What was measured:
# [1] = In vivo exposure after single oral dosing; conditions: male, Swiss outbred, mouse, plasma, 50 mg/kg
# Description: This produced a uniform off-white milky suspension of pH 6.0. […] Samples were collected by either submandibular bleed (~120 µL) or terminal cardiac puncture (under inhaled isoflurane anesthesia). Blood samples were centrifuged immediately, and supernatant plasma was removed and stored at −80°C until analysis as described above.
# [2] = tested on: human M1 aminopeptidase insulin-regulated aminopeptidase (IRAP); design: method as in PMID 30537832; conditions: tested up to 200 µM; cited from earlier work
# [3] = Kinetic solubility by nephelometry; format: physicochemical
# Description: Preliminary studies were conducted to assess the in vitro absorption, distribution, metabolism, and excretion (ADME) properties and in vivo mouse exposure of MMV1557817 following single oral dosing. Kinetic solubility was conducted using nephelometry based on a modification of a previously published method ([45]). Briefly, compound was dissolved in DMSO and spiked into either pH 6.5 phosphate buffer (to reflect the pH of the fasted state upper small intestine) or 0.01 M HCl (to reflect gastric pH 1.5–2) with a final DMSO concentration of 1% (vol/vol) and final concentrations ranging from 1 to 100 µg/mL. Samples were analyzed by nephelometry to determine the concentration above which precipitation occurred.
# [4] = tested on: P. falciparum Dd2 parasites; test: Fractional inhibitory concentration, artemisinin and MMV1557817 interaction; format: cell-based
# Description: Fractional inhibitory concentrations (FIC) were determined as previously described ([44]). […] The FIC for each drug was determined by EC50 of drug in a mixture/EC50 of drug alone, and the sum of FIC was determined by the addition of the two individual FIC values. Synergistic FIC is described as <1, additive = 1 < 2, and antagonism > 2 ([44]).
# [5] = Binding to Albumax medium by ultracentrifugation; format: in vitro ADME
# Description: Human plasma was obtained from the Volunteer Blood Donor Registry (Walter & Eliza Hall Institute, Melbourne, Australia), rat plasma was from male Sprague-Dawley rats (Animal Resource Centre, Perth, Western Australia) and mouse plasma was procured as described above. RPMI-1640 media supplemented with 25 mM HEPES, 2 g/L sodium bicarbonate, and 100 mg/L neomycin were additionally supplemented with 5 […] on the day prior to binding assessment. […] Additional aliquots of spiked matrix were maintained at 37°C for 4.2 h but not centrifuged to serve as controls for stability assessment and to obtain a measure of the total concentration in each matrix. Following centrifugation, aliquots of the protein-free supernatant and the non-centrifuged matrix controls were “matrix matched” by addition of an equal volume of the opposite medium (i.e., either blank buffer or blank matrix) and assayed as described above with comparison to calibration standards prepared in 50% matrix/50% PBS.
# HDAC7 = biological target: T1, HDAC7 (Homo sapiens, UniProt Q8WUI4); test: Eurofins Cerep safety pharmacology screening; format: biochemical; conditions: read-out: Mean % inhibition (n=2); HDAC7, 10 µM
# T1 construct: Eurofins Cerep (contract screen)
# Description: (§1) Results showing any inhibition or stimulation higher than 50% are considered to represent significant effects of the test compounds.
# HDAC2 = biological target: T2, HDAC2 (Homo sapiens, UniProt Q92769); test: Eurofins Cerep safety pharmacology screening; format: biochemical; conditions: read-out: Mean % inhibition (n=2); HDAC2, 10 µM
# T2 construct: Eurofins Cerep (contract screen)
# Description: as §1
# MMP-3 = biological target: T3, MMP-3 (Homo sapiens, UniProt P08254); test: Eurofins Cerep safety pharmacology screening; format: biochemical; conditions: read-out: Mean % inhibition (n=2); MMP-3, 10 µM
# T3 construct: Eurofins Cerep (contract screen)
# Description: as §1
# HDAC8 = biological target: T4, HDAC8 (Homo sapiens, UniProt Q9BY41); test: Eurofins Cerep safety pharmacology screening; format: biochemical; conditions: read-out: Mean % inhibition (n=2); HDAC8, 10 µM
# T4 construct: Eurofins Cerep (contract screen)
# Description: as §1
# MMP-9 = biological target: T5, MMP-9 (Homo sapiens, UniProt P14780); test: Eurofins Cerep safety pharmacology screening; format: biochemical; conditions: read-out: Mean % inhibition (n=2); MMP-9, 10 µM
# T5 construct: Eurofins Cerep (contract screen)
# Description: as §1
# HDAC5 = biological target: T6, HDAC5 (Homo sapiens, UniProt Q9UQL6); test: Eurofins Cerep safety pharmacology screening; format: biochemical; conditions: read-out: Mean % inhibition (n=2); HDAC5, 10 µM
# T6 construct: Eurofins Cerep (contract screen)
# Description: as §1
# MMP-2 = biological target: T7, MMP-2 (Homo sapiens, UniProt P08253); test: Eurofins Cerep safety pharmacology screening; format: biochemical; conditions: read-out: Mean % inhibition (n=2); MMP-2, 10 µM
# T7 construct: Eurofins Cerep (contract screen)
# Description: as §1
# MMP-14 = biological target: T8, MMP-14 (Homo sapiens, UniProt P50281); test: Eurofins Cerep safety pharmacology screening; format: biochemical; conditions: read-out: Mean % inhibition (n=2); MMP-14, 10 µM
# T8 construct: Eurofins Cerep (contract screen)
# Description: as §1
# HDAC10 = biological target: T9, HDAC10 (Homo sapiens, UniProt Q969S8); test: Eurofins Cerep safety pharmacology screening; format: biochemical; conditions: read-out: Mean % inhibition (n=2); HDAC10, 10 µM
# T9 construct: Eurofins Cerep (contract screen)
# Description: as §1
# MMP-7 = biological target: T10, MMP-7 (Homo sapiens, UniProt P09237); test: Eurofins Cerep safety pharmacology screening; format: biochemical; conditions: read-out: Mean % inhibition (n=2); MMP-7, 10 µM
# T10 construct: Eurofins Cerep (contract screen)
# Description: as §1
# MMP-8 = biological target: T11, MMP-8 (Homo sapiens, UniProt P22894); test: Eurofins Cerep safety pharmacology screening; format: biochemical; conditions: read-out: Mean % inhibition (n=2), MMP-8, 10 µM
# T11 construct: Eurofins Cerep (contract screen)
# Description: as §1
# HDAC1 = biological target: T12, HDAC1 (Homo sapiens, UniProt Q13547); test: Eurofins Cerep safety pharmacology screening; format: biochemical; conditions: read-out: Mean % inhibition (n=2); HDAC1, 10 µM
# T12 construct: Eurofins Cerep (contract screen)
# Description: as §1
# Pf3D7 = test: Parasite reduction ratio assay; format: cell-based, P. falciparum
# Description: Assays were performed as described previously with some alterations ([37]). […] Specifically, media containing compound was placed in wells every 24 h for up 120 h. […] Parasite growth was measured at day 21 using SYBR green I as described above. Fluorescence was used to determine at what treatment day wells became positive for growth when compared with the well before it; greater than double the fluorescence was determined to be a positive well. […] Experiments were performed in two or three biological replicates in quadruplicate.
# P. berghei ANKA = test: P. berghei rodent malaria 4-day Peters' suppressive test; format: in vivo, P. berghei (Balb/c mice); conditions: 50 mg/kg oral on days 0, 1, 2, 3 post-infection, read on day 4
# Description: Female Balb/c mice at 6 weeks of age in groups of 4-5 were infected intraperitoneally with 2 × 10^7 P. berghei ANKA-infected erythrocytes. […] Parasitemia was assessed by visualizing Giemsa-stained thin blood smears by microscopy and a minimum of 1,000 RBCs was counted. […] University Animal Ethics Committee.
# T7 sequence (P08253 110-660): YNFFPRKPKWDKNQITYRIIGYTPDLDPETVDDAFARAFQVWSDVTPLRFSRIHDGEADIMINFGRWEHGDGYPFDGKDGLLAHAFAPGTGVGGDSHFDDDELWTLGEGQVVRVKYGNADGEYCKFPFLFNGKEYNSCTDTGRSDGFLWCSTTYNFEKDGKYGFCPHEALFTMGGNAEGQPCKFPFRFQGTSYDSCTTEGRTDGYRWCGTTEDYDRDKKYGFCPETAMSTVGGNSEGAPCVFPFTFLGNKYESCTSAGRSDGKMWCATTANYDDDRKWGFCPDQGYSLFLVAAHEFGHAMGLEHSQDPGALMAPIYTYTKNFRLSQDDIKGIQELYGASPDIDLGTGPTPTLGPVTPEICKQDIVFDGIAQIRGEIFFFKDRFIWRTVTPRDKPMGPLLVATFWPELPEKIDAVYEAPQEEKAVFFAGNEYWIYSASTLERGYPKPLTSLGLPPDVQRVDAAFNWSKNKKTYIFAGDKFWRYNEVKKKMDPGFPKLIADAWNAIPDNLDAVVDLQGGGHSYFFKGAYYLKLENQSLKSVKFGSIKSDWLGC
# T12 sequence (Q13547 whole entry): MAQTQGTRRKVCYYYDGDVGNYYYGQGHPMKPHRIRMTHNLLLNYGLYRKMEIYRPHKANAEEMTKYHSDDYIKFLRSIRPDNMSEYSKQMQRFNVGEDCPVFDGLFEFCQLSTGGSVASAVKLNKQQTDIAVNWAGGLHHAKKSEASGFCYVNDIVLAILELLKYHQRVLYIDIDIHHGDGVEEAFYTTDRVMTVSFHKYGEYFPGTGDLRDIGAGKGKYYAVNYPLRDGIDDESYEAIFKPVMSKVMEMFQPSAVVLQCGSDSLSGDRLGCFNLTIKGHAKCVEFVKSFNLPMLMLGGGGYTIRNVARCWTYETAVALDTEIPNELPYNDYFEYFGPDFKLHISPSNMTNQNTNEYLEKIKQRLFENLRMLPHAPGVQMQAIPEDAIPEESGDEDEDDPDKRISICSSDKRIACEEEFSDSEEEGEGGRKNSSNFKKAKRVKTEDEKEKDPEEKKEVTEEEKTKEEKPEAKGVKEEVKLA
# T11 sequence (P22894 101-467): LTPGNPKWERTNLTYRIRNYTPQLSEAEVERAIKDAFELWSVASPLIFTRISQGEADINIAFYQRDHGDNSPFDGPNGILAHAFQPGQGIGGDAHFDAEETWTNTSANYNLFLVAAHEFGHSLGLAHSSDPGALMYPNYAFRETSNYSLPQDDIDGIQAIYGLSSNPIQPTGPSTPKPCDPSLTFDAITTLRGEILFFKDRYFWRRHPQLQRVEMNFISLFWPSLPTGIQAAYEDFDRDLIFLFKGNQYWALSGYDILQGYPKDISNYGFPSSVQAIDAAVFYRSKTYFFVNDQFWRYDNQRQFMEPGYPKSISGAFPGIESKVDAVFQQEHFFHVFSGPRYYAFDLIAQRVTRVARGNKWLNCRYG
# T9 sequence (Q969S8 whole entry): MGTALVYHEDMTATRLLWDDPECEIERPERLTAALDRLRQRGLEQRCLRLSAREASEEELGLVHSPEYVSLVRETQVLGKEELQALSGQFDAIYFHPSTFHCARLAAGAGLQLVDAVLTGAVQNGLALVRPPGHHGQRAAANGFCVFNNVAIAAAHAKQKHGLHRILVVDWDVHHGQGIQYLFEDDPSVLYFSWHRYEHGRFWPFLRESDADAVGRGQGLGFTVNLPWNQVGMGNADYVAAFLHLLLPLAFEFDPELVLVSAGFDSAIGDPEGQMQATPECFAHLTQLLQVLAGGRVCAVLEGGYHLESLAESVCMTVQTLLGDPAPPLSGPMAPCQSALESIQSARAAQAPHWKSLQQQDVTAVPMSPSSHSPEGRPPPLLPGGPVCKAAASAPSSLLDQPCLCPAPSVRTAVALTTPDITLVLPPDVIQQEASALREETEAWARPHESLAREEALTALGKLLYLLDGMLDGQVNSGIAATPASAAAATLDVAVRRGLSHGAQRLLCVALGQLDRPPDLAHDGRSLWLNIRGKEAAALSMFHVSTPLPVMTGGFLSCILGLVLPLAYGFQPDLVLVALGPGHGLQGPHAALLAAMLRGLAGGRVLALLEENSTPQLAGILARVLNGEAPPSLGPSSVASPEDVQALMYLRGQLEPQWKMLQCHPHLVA
# T3 sequence (P08254 100-477): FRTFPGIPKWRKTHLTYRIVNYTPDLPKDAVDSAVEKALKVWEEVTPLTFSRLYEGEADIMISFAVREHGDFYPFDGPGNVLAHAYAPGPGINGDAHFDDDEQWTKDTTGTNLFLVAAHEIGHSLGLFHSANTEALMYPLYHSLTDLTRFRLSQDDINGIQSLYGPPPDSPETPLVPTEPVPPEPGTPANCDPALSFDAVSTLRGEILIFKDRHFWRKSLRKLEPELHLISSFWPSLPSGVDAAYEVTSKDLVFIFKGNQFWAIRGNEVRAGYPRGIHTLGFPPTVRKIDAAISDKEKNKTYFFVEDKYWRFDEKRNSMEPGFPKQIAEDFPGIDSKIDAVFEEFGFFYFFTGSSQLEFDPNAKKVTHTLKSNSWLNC
# T5 sequence (P14780 94-707): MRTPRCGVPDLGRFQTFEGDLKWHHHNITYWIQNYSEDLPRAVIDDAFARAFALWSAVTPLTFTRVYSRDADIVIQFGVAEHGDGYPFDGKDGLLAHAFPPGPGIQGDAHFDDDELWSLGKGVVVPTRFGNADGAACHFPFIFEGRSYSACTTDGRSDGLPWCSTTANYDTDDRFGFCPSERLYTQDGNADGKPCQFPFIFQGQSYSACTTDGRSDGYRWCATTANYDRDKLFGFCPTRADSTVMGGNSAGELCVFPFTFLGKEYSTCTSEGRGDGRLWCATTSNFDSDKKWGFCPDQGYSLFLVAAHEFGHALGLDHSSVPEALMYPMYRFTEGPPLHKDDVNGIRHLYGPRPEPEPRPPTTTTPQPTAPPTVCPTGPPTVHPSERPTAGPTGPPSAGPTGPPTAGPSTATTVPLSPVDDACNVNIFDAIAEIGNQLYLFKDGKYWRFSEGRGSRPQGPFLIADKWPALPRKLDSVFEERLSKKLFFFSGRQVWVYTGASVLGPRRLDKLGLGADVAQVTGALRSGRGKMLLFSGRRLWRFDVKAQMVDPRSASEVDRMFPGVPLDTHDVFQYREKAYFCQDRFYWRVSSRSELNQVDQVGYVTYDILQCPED
# T4 sequence (Q9BY41 whole entry): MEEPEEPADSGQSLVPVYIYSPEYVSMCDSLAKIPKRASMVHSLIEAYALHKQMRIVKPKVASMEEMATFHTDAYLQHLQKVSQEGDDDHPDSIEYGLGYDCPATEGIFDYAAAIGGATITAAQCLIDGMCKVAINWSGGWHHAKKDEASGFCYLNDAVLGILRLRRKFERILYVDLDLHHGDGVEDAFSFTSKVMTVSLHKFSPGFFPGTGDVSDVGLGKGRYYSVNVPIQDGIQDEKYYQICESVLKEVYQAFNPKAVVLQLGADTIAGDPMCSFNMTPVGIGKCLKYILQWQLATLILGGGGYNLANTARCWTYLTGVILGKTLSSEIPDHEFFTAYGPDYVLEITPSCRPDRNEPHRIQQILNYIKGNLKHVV
# T6 sequence (Q9UQL6 whole entry): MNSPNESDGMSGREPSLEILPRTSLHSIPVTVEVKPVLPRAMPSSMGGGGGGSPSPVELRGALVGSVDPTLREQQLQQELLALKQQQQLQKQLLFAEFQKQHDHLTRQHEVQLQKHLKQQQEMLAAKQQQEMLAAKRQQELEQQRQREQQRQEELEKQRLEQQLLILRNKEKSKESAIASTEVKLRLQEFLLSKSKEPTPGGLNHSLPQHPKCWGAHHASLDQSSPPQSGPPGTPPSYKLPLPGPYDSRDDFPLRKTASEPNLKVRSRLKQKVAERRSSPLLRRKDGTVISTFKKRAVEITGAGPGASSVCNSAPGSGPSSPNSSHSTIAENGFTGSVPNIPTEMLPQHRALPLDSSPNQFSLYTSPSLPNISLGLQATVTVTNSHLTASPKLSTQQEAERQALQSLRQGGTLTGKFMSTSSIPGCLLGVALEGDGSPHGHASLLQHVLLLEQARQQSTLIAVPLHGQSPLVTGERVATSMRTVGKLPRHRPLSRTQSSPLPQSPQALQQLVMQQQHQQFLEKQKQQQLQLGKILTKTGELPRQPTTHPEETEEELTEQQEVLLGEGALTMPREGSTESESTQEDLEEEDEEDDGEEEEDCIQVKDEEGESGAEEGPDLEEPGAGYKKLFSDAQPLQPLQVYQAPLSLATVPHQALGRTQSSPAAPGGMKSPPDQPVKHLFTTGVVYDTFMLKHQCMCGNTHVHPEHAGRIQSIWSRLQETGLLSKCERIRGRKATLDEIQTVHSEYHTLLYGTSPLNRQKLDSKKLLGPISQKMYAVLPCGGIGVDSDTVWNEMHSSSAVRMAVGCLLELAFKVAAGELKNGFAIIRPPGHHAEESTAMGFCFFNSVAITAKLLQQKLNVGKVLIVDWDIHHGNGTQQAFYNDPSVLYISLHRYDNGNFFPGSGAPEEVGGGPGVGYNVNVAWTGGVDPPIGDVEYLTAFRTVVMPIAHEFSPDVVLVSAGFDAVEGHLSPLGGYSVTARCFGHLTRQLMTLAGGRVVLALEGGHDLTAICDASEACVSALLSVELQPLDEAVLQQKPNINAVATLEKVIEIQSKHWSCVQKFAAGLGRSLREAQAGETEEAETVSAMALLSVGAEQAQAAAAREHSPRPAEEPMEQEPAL
# T10 sequence (P09237 95-267): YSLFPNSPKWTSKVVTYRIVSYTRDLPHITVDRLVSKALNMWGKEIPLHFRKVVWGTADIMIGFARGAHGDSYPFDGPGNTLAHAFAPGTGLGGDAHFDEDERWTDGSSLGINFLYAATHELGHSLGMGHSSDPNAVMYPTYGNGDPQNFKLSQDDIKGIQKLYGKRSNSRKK
smiles,measurement,setting,value
"CC(C)(C)CC(=O)NC(C(=O)NO)c1ccc(-c2cc(F)c(F)c(F)c2)cc1 (stereo not shown) [MMV1557817, N-(2-(hydroxyamino)−2-oxo-1-(3′,4′,5′-trifluoro-[1,1′-biphenyl]-4-yl)ethyl)-3,3-dimethylbutanamide]",AUC(0-inf),[1],15.2 µM·h
same,AUC(0-t),[1],14.9 µM·h
same,Cmax,[1],5.2 µM
same,Tmax,[1],0.5 h
same,half-life,[1],4.3 h
same,off-target inhibition,[2],limited off-target inhibitory affects
same,solubility kinetic,[3]; pH 2.0 (0.01 M HCl),0.0125 to 0.025 mg/mL
same,solubility kinetic,[3]; pH 6.5 phosphate buffer,0.0125 to 0.025 mg/mL
same,MMV1557817 mean FIC ± SEM,[4]; ratio MMV1557817:artemisinin 1:4,0.87 ± 0.08
same,MMV1557817 mean FIC ± SEM,[4]; ratio MMV1557817:artemisinin 2:3,1.13 ± 0.19
same,MMV1557817 mean FIC ± SEM,[4]; ratio MMV1557817:artemisinin 3:2,1.10 ± 0.20
same,MMV1557817 mean FIC ± SEM,[4]; ratio MMV1557817:artemisinin 4:1,1.05 ± 0.18
same,MMV1557817 mean FIC ± SEM,[4]; ratio MMV1557817:artemisinin 5:0,1.00 ± 0.19
same,unbound in Albumax medium,[5]; Albumax medium,15.5%
same,Albumax media binding,[5]; Albumax medium used for in vitro activity assessment,84.5%
same,inhibition at 10 µM,HDAC7,7.7%
same,inhibition at 10 µM,HDAC2,3%
same,inhibition at 10 µM,MMP-3,-0.8%
same,inhibition at 10 µM,HDAC8,6.3%
same,inhibition at 10 µM,MMP-9,46.3%
same,inhibition at 10 µM,HDAC5,-2.8%
same,inhibition at 10 µM,MMP-2,39.8%
same,inhibition at 10 µM,MMP-14,24.1%
same,inhibition at 10 µM,HDAC10,5.3%
same,inhibition at 10 µM,MMP-7,-6.7%
same,inhibition at 10 µM,MMP-8,52.6%
same,inhibition at 10 µM,HDAC1,2.8%
same,99.9% PCT,"Pf3D7; Pf3D7, 10× EC50",86 h
same,Lag phase,"Pf3D7; Pf3D7, 10× EC50",72 h
same,Log (PRR),"Pf3D7; Pf3D7, 10× EC50, over one cycle",2.2 ± 0.2
same,parasite reduction compared with vehicle control,P. berghei ANKA,95.4%
